Reference: a melting point compilation (Tetko et al.; mined from patent text by program, amines drawn as free bases though some values may be those of a salt)

| Structure (SMILES) | melting point [°C] |
| --- | --- |
| CC(C)(C)c1cc(C(=NNc2ccccc2)c2cccnc2Cl)cc(C(C)(C)C)c1O | 181 |
| CC(C)(C)c1cnc(-c2nn(-c3ccc(F)cc3F)c3c2C2CCC3C2)o1 (centres undefined) | 58 to 60 |
| CCOC(=O)CSc1n[nH]c(=S)[nH]1 | 134 to 136 |
| CCOC(=O)CC[C@H](NC(=O)c1ccc(C(CO)CC2CNc3nc(NC(=O)C(C)(C)C)nc(O)c3C2)cc1)C(=O)OCC (some centres undefined) | 133 to 135 |
| Cc1ccc(CNC(=O)c2cc3c(ccc4cnn(C[C@H](C)N)c43)o2)o1 | 118 to 120 |
| COC(=O)NCc1c[nH]c(=S)n1[C@H]1CCc2c(F)cc(F)cc2C1 | 220 to 222 |
| COC(=O)c1ccc(COc2ccc(-c3ncccc3S(=O)(=O)N(C(=O)OCC(C)C)c3ncc(C)nc3OC)cc2)cc1 | 134 to 135 |
| CONC(=O)c1nc(-c2ccc(Cl)c(OC)c2F)cc(N)c1Cl | 215 to 217 |
| CC(=NO)c1ccc2c(c1)CCCN2C(=O)OC(C)(C)C | 127 to 129 |
| CCC(CC)c1ccc(Cl)c2nc3n(c12)CCCCN3c1ccc(C(=O)N(C)C)cc1C | 113 to 114 |
| O=C(Nc1ccccc1)N1CCc2[nH]c3c(cnc4cc(Cl)ccc43)c2C1 | > 260 |
| CSc1cc2c(cc1C(F)(F)F)N(C(=O)Nc1cccc(C(=O)N(C)CCN(C)C)c1)CC2 | 140 to 141 |
| CC(C)(C)c1cc(CCC2NC(=O)NC2=O)cc(C(C)(C)C)c1O (centres undefined) | 207 to 208 |
| Cc1nc2c(c3c1[nH]c1ccccc13)C(=NO)CC(C)(C)C2 | 293 to 294 |
| CC(=O)c1ccc(F)c(S(N)(=O)=O)c1 | 135 |
| O=C1N(Cc2ccc(O)cc2)c2ccccc2C12COc1cc3c(cc12)OCCO3 (centres undefined) | 243 to 244 |
| CS(=O)(=O)c1ccc2c3c(cccc13)C(=O)N2 | 242 to 243 |
| CC(C)(C)OC(=O)Cn1c(=O)c(=O)[nH]c2cc(Cl)c(Cl)cc21 | > 300 |
| CCOc1ccc(S(C)(=O)=O)cc1C(=O)O | 139 to 141 |
| COc1ccc(-c2oc(C(F)(F)F)nc2-c2ccc(S(N)(=O)=O)cc2)cc1F | 150 to 151 |
| CC(C)=C1OC(=O)N(c2ccc(Cl)cc2)C1=O | 135 to 136 |
| CCOC(=O)CCCNCc1nn2c(-c3ccc(OC)cc3)nnc2c2ccccc12 | 103 to 105 |
| Cc1ccccc1P(=NC(=O)OCc1cccnc1)(c1ccccc1)c1ccccc1 | 142 to 143 |

| Structure (SMILES) | melting point [°C] |
| --- | --- |
| CC(C)c1nnc(-c2ccc(-c3ccccc3)cc2)n1-c1ccccc1F | 201 to 204 |
| O=C(C=Cc1ccccn1)N1CCc2c([nH]c3ccccc23)C1c1ccc2c(c1)OCO2 (centres undefined) | 135 to 141 |
| O=C1CCC2(c3ccc(-c4ccc(OC(F)(F)F)cc4)cc3)OCC(c3ccccc3)N12 (centres undefined) | 104 |
| COc1ccc(CN2C(=O)N([C@H](C)c3ccccc3)[C@H]3COC(=O)[C@H]32)cc1 | 146 |
| CC(C)Oc1cc(OC(C)C)c(C(=O)O)c(C(F)(F)F)n1 | 147 to 150 |
| Cn1c(CO)cc2ccccc21 | 92.8 |
| O=c1cc2c(nn1-c1ccc(Cl)cc1)-c1cnccc1CC2 | 166 to 168 |
| CCC(=O)c1cc(C2(c3cccc(-c4cccnc4F)c3)N=C(N)N(C)C2=O)cn1CC(F)(F)F (centres undefined) | 108 to 110 |
| COc1cc(C(=O)CCCC2CCCCC2)c(OC)cc1Cl | 80 to 81 |
| CCc1nc2cc(C(F)(F)F)c(Cl)cc2n1-c1ccc(CCOC(=O)NS(=O)(=O)c2cn(C)cn2)cc1 | 204 |
| CCCCCCCCOc1ccc(C(=O)Oc2ccc(C(=O)O)c(F)c2)cc1 | 147 to 148 |
| COC(=O)NCc1cc(C(C)=NO)ccc1Cl | 124 to 127 |
| O=C(NCCCO)C1=C(C(=O)Nc2ccc(Cl)cc2F)CCCC1 | 138 |
| CCCCOCCOc1ccc(-c2ccc3c(c2)C=C(C(=O)O)CCN3S(C)(=O)=O)cc1 | 208 to 210 |
| CN(C)C(CNc1c(C#N)cnn2cccc12)c1ccco1 (centres undefined) | 107 |
| Cc1cccc(NC(=O)NCC(=O)N(CC(=O)N2CCC3(CCCC3)CC2)c2ccccc2)c1 | 183 |
| CC(=O)Nc1cc2c(cc1Br)CCC2 | 138 |
| Cc1cccnc1-c1cc2cccnc2c(Cl)n1 | 130 to 131 |
| CC1=C(C(=O)OCCN(C)Cc2ccccc2)C(c2cccc([N+](=O)[O-])c2)c2c(N)nc(N)nc2N1 (centres undefined) | 162 |
| CCCc1nc2c(N)nc3cccnc3c2n1C1(OC)CCCCC1 | 187 to 188 |
| COc1cccc2oc(-c3ccccc3Cl)cc(=O)c12 | 148 to 149 |
| NS(=O)(=O)c1cccc(C2(O)CCC2)c1 | 155 to 157 |

Continued, values first:

| melting point [°C] | Structure (SMILES) |
| --- | --- |
| 185 to 186 | COC(=O)C(CSC(=O)c1ccccc1)NC(=O)C(=O)NC(CSC(=O)c1ccccc1)C(=O)OC (centres undefined) |
| 139 to 141 | CCCCN(CCCC)C(=S)Nc1ccc(NNC=O)cc1 |
| 146 to 147 | CCS(=O)c1cc2c(c3c1OC(C)(C)C3)C(c1ccccc1)=NC(C)(C)C2 (centres undefined) |
| 114 | CC(=Cc1ccc(-c2ccc(Cl)cc2)cc1)[N+](=O)[O-] |
| 335 | O=c1c2c(c1=O)NCCCN2 |
| 202 to 203 | C=CCn1c(=O)c2c(nc(/C=C/c3ccc(O)c(OC)c3)n2C)n(CC=C)c1=O |
| 206 to 208 | OC1CSC(Oc2cncc(-c3ccccc3F)c2)C(O)C1O (centres undefined) |
| 128 | COc1ccc(CCN2C=CC=C3C2=Nc2cc(C)ccc2S(=O)(=O)N3C)cc1 |
| 125 to 126 | CC(C)CNCc1cc2cc(NC(=O)c3ccc(OCC4CCOC4)cc3)ccc2n1C (centres undefined) |
| 131 | O=C(NC1CCc2cc3c(cc2C1)OCC3)C(F)(F)F (centres undefined) |
| 159 to 160 | O=C(NO)c1ccc(CNC(=O)c2[nH]c(-c3ccoc3)cc2-c2ccc(O)cc2)cc1 |
| 114 to 115 | CC(C)c1cc(CCCOc2ncccc2CC(=O)O)n(Cc2ccc(C(F)(F)F)cc2Cl)n1 |
| 142 to 143 | COc1ccc2c(CBr)c(Br)ccc2c1C(F)(F)F |
| 203 to 204 | CCc1ccccc1NC(=O)c1ccc(CN2C(=O)C3(COc4cc5c(cc43)CCO5)c3ccccc32)cc1 (centres undefined) |
| 267 to 270 | O=c1[nH]c2cscc2c(=O)c2cscc12 |
| 130 | COC(=O)C=C1C(=O)N(c2ccccc2)C(=O)N1Cc1ccccc1 |
| 142 to 143 | O=C(Nc1ccc(OCCN2CCOCC2)c2ccccc12)c1cccc(-n2cccc2)c1 |
| 234 to 236 | CCOC(=O)c1cnn2c1c(N1CCN(C)CC1)nc1ccccc12 |
| 142 to 144 | CCOC(=O)c1cc2c(OCC3CO3)cccc2[nH]1 (centres undefined) |
| 214 to 216 | Cc1[nH]c(-c2ccccc2)c(N)c1C(=O)c1ccccc1Cl |
| 97 to 100 | CC(C)Cn1c(CCCCNC(=O)N2CCOCC2)nc2c(N)nc3ccccc3c21 |
| 208 to 209 | COc1ccc(-c2cc3ccccc3[nH]2)cc1N |
| 119 to 121 | CCCC(=O)c1cnc2c(OC)cccc2c1Nc1ccsc1CC |
| 187 to 190 | O=C(NC(=O)c1ccccc1)NC1CCC(=O)c2sccc21 (centres undefined) |
| 132 to 134 | CCC(CC)c1cccc2nc(C(O)c3c(C)cc(C)cc3C)n(C)c12 (centres undefined) |
| 106 to 108 | CC(C)(C)C(=O)CC(=O)c1cccc(C(=O)CC(=O)C(C)(C)C)c1 |
| 196 to 200 | CCCc1nc2c(N)nc3cc(OCCC4CCN(C(=O)OC(C)(C)C)CC4)ccc3c2n1CC(C)C |

| melting point [°C] | Structure (SMILES) |
| --- | --- |
| 240 | COc1cc(C)c2cc(C(=O)c3ccc(C(=O)O)cc3)ccc2c1C |
| 244 to 248 | NC(=O)c1sc2nccc(N3CCCN(c4ccc([N+](=O)[O-])cc4)CC3)c2c1N |
| 53.5 to 55.5 | CCCCCCCCN1CCN(O)C1=O |
| 102 to 104 | CC(=O)N1CCN(c2nccc(Oc3ccc(NC(=O)c4cc(F)cc(N5CCCCC5)c4)c4ccccc34)n2)CC1 |
| 188 to 189 | CCCn1nc(-c2cnc(N)nc2-c2ccccc2)ccc1=O |
| 230 to 233 | COc1ccc(Cl)cc1C1(F)C(=O)Nc2c(C(F)(F)F)cccc21 (centres undefined) |
| 133 | COc1cc(C(C)(C)C)c(OC(C)=O)c(C(C)(C)C)c1CC(C)=O |
| 131 to 134 | CC(=N)Nc1ccc(NC(C)=O)cc1 |
| 180 | COc1cc(C=O)cc(C#N)c1O |
| 154 to 156 | CC(=O)Oc1ccccc1NC(=O)c1cc(Cl)c(OC(C)=O)c(Cl)c1 |
| 230 to 232 | COC(=O)Nc1cc(Oc2ccc3c(C(=O)Nc4cccc(C(F)(F)F)c4)cccc3c2)ccn1 |
| 184 to 185 | O=C(CCl)Nc1ccc2c(c1NC(=O)Cc1ccccc1)C(=O)c1ccccc1C2=O |
| 183 to 184 | CCC(CC)N(O)C(=O)Nc1ccc(-c2ccccc2)cc1 |
| 208 to 210 | N#Cc1cc2c(cc1F)S(=O)(=O)NCN2C1CC1 |
| 140 to 141 | COc1cc(NC(=O)N(O)C(C)C)cc(OC)c1OC |
| 67.5 to 68 | C/C(=C\C(C)O)c1ccc(C2CCCCC2)cc1 (centres undefined) |
| 73 to 74 | CC(C)(C)c1cc(C(=O)Sc2ccccn2)cc(C(C)(C)C)c1 |
| 108 to 112 | Cc1cc(C(=O)N2Cc3ccc(C(=O)NCc4cccnc4)n3Cc3ccccc32)ccc1-c1ccccc1 |
| 43 to 45 | OCc1cccc2oc3c(c12)CCCC3 |
| 163 to 165 | CCCN1CC(c2ccc(S(C)(=O)=O)cc2)=C(Oc2ccccc2)C1=O |
| 219 | ClCCCOc1cccc2c(OCCCCl)cccc12 |
| 96 to 98 | CCc1cccc(C2=NC(C)(C)CO2)c1C |
| 198 to 200 | CCCCc1nc2c(N)nc3ccc(OCCC4CCN(S(C)(=O)=O)CC4)cc3c2n1C |
| 226 to 228 | C=CCOC(=O)c1cccc(C2=Nc3cc(C)c(-c4cccc(CF)c4)cc3NC(=O)C2)c1 |
| 75 to 76 | COc1cc(C)c(N)cc1C |
| 181 | OCC1OC(n2cnc3c(NCCc4cn(Cc5ccc(Cl)cc5)c5ccccc45)ncnc32)C(O)C1O (centres undefined) |
| 101 to 103 | COc1cccc(-c2nc3n(n2)CCc2cc(OC)ccc2-3)c1 |
